Reference: the Kinase Knowledgebase extract (Sharma et al. 2016)

Assays:
PIK3CA = PIK3CA (UniProt P42336); assay: PIK3-alpha Kinase Inhibition
PIK3CB = PIK3CB (UniProt P42338); assay: PIK3-beta Kinase Inhibition
PIK3CD = PIK3CD (UniProt O00329); assay: PIK3-delta Kinase Inhibition
PIK3CG = PIK3CG (UniProt P48736); assay: PIK3-gamma Kinase Inhibition
PIK3CG, sequence (P48736 whole entry, looked up): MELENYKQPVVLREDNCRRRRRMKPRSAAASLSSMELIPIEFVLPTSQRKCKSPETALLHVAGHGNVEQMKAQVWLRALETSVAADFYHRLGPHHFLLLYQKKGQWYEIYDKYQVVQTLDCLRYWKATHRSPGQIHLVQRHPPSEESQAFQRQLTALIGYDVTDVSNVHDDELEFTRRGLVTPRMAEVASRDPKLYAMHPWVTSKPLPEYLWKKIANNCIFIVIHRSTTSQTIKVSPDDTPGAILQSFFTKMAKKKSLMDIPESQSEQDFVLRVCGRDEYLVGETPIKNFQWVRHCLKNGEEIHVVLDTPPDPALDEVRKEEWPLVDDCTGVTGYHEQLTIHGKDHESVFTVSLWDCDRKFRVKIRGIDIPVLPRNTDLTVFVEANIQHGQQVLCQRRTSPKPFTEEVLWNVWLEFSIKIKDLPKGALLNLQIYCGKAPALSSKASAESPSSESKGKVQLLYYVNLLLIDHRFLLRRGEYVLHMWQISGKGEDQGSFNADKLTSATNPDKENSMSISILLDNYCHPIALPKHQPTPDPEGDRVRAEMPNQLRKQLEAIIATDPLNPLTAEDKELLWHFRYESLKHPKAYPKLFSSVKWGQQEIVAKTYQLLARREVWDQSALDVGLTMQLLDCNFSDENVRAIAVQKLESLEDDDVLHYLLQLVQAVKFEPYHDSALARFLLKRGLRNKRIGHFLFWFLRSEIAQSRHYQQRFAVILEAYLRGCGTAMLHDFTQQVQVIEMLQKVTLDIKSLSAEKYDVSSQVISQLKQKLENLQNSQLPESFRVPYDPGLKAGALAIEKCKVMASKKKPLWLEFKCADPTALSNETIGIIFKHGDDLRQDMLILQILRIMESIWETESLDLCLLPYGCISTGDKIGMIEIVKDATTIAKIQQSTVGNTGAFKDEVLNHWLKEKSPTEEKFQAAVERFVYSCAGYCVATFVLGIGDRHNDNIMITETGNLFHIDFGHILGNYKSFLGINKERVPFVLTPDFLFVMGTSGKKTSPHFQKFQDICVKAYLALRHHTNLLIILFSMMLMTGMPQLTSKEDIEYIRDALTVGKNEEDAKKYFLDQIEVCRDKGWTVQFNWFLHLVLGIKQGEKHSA

PIK3CD, sequence (O00329 whole entry, looked up): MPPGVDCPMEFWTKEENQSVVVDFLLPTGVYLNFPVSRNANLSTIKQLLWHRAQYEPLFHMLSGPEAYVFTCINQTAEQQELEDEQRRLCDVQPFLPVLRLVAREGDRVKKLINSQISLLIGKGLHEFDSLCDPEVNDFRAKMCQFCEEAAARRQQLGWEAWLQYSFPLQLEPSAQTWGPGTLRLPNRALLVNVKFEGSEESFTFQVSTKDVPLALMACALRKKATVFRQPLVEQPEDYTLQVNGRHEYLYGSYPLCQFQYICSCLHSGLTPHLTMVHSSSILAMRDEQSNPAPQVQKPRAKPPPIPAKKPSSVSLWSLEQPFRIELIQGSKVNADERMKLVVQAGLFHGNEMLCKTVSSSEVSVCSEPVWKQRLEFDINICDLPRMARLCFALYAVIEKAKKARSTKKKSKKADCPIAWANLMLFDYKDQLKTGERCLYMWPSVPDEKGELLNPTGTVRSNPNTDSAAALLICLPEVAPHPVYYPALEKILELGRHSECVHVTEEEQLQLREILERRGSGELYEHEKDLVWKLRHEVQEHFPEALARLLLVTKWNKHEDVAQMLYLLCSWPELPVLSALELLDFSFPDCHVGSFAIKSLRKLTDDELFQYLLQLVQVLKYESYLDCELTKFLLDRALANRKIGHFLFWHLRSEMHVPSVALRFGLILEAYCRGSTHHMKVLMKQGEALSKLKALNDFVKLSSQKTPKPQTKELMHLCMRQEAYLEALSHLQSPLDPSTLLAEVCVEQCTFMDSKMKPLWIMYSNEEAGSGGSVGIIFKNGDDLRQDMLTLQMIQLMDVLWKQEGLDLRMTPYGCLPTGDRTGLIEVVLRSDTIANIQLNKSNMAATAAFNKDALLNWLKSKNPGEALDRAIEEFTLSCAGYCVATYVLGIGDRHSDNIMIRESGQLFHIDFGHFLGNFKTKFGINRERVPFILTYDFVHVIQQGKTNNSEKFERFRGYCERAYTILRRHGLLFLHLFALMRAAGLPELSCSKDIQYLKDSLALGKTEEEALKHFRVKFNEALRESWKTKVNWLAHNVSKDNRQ
PIK3CB, sequence (P42338 whole entry, looked up): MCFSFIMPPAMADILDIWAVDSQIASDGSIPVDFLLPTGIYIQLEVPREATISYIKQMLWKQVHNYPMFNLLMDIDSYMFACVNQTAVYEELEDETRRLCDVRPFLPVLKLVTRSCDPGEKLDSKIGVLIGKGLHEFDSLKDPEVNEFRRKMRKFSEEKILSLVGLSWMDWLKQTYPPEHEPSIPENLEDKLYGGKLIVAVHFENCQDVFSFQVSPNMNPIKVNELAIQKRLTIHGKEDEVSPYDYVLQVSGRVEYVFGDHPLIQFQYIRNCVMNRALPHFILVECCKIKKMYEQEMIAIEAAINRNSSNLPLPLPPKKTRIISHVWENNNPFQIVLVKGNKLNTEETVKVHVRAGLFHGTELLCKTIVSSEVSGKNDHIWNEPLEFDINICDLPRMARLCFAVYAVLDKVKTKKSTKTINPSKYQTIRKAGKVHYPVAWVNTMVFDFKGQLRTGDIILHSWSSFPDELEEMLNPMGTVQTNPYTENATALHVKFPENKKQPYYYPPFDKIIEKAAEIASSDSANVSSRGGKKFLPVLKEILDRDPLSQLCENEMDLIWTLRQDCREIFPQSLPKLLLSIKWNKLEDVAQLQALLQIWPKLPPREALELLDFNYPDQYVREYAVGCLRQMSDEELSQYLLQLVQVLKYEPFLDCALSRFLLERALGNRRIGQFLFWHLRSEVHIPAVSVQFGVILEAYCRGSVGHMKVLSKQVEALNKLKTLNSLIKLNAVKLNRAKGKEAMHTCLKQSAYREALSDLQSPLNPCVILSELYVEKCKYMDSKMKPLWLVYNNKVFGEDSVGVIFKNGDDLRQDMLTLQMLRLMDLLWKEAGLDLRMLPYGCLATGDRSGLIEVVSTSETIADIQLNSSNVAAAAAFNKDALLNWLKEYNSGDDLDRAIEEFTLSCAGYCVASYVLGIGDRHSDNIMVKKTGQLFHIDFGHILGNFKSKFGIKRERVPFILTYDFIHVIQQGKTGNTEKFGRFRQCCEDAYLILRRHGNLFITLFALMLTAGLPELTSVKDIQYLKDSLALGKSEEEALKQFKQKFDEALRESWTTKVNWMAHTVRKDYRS
PIK3CA, sequence (P42336 whole entry, looked up): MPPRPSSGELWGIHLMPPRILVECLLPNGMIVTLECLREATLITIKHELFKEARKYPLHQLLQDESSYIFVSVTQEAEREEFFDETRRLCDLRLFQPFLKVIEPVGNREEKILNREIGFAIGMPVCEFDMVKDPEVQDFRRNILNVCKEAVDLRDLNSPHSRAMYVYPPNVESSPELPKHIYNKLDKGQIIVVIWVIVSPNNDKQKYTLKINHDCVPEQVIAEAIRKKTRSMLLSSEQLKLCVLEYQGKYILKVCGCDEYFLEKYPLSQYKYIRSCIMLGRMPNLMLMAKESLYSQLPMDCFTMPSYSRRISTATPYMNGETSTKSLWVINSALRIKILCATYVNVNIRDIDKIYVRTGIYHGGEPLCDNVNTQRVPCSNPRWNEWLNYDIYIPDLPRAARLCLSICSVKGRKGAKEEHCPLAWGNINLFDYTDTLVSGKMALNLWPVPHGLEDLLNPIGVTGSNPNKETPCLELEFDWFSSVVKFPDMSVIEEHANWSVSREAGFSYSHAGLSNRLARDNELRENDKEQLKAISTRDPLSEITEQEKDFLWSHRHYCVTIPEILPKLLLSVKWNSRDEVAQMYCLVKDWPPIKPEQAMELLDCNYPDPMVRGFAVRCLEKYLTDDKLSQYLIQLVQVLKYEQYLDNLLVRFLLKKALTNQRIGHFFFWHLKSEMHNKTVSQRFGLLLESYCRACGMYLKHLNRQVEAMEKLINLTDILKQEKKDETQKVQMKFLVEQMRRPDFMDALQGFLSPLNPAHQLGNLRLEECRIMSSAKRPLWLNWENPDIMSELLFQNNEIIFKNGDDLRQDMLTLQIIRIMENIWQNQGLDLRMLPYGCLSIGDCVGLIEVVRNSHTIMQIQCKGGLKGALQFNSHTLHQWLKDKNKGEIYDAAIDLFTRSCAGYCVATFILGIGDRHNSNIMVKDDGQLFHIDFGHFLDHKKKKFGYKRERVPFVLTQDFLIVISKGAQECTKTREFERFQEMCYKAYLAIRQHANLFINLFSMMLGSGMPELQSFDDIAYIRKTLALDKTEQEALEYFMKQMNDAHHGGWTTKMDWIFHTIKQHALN

Compound	IC50 (PIK3CA) [µM]	IC50 (PIK3CB) [µM]	IC50 (PIK3CD) [µM]	IC50 (PIK3CG) [µM]	IC80 (PIK3CB) [µM]
Cc1ccccc1Oc1cccc2c(=O)cc(N3CCOCC3)[nH]c12	61	0.13	0.63	100	–
O=c1cc(N2CCOCC2)oc2ccccc12	45	7.5	13	100	–
Cc1cc(NCc2ccccc2C)c2nc(N3CCOCC3)cc(=O)n2c1	–	0.11	–	–	–
Cc1cccc(CNc2cc(C)cn3c(=O)cc(N4CCOCC4)nc23)c1	1.8	0.99	0.39	25	–
Cc1cc(Br)c2nc(N3CCOCC3)cc(=O)n2c1	58	9.9	8.5	> 100	–
COc1ccccc1Nc1cc(C)cn2c(=O)cc(N3CCOCC3)nc12	50	20	10	> 100	–
Cc1cc(Nc2cccc(C)c2C)c2nc(N3CCOCC3)cc(=O)n2c1	6.2	3.5	3.3	100	–
Cc1cc(Nc2ccc(C)c(C)c2)c2nc(N3CCOCC3)cc(=O)n2c1	10	14	5	> 100	–
Nc1cc(N2CCOCC2)ccc1[N+](=O)[O-]	100	23	24	100	–

The next lines start with the values.

IC50 (PIK3CA) [µM]	IC50 (PIK3CB) [µM]	IC50 (PIK3CD) [µM]	IC50 (PIK3CG) [µM]	IC80 (PIK3CB) [µM]	Compound
14	18	6.9	38	–	Cc1cc(-c2cccc(N)c2)c2nc(N3CCOCC3)cc(=O)n2c1
–	3.7	–	–	–	O=C(c1ccccc1)c1ccc(N2CCOCC2)cc1O
16	–	3.8	10	0.99	CC(=O)c1ccc(N2CCOCC2)cc1O
9	3.3	3.8	> 100	–	Cc1cc(Nc2ccccc2C)c2nc(N3CCOCC3)cc(=O)n2c1
30	–	4.8	70	–	O=C(CCl)c1ccc(N2CCOCC2)cc1O
–	2.8	–	–	–	O=Cc1ccc(N2CCOCC2)cc1O
–	–	6	–	–	O=c1cc(N2CCOCC2)oc2c(-c3ccccc3)cccc12
8.1	0.16	0.15	10	–	Cc1cc(NCc2ccccc2)c2nc(N3CCOCC3)cc(=O)n2c1
